In PMC6835155, “Lessons from LIMK1 enzymology and their impact on inhibitor design” (Biochemical Journal, 2019):
Counter-ions that a name gives are not always drawn. Like-named read-outs stand apart in the source and are kept apart here.

Legend:
LIMK1KD = target: T1, LIMK1KD (Homo sapiens, UniProt P53667); assay: Differential (dynamic) scanning fluorimetry (DSF) assay, LIMK1KD; type: binding; settings: for ΔTm at 10 µM: read-out: TM Shift LIMK1 (K)
T1 construct: His6 (N, cleaved yes); made in house; host or cells: baculovirus; Sf9 for virus, TriEx insect cells for expression

LIMK2KD = target: T2, LIMK2KD (Homo sapiens, UniProt P53671); assay: Differential (dynamic) scanning fluorimetry (DSF) assay, LIMK2KD; type: binding
T2 construct: The cDNA coding for LIMK2 residues 330 to 632 was PCR amplified; His6 (N, cleaved yes); made in house; host or cells: baculovirus; Sf9 for virus, TriEx insect cells for expression

[1] = 2 µM LIMK1KD, compound 10 µM, single shot
[2] = LIMK2KD, compound 10 µM, single shot, read-out: TM Shift LIMK2 (K)
[3] = LIMK2KD, compound 10 µM, single shot
[4] = LIMK2KD, compound 10 µM, single shot, 10 µM

T2 sequence (P53671 330-632): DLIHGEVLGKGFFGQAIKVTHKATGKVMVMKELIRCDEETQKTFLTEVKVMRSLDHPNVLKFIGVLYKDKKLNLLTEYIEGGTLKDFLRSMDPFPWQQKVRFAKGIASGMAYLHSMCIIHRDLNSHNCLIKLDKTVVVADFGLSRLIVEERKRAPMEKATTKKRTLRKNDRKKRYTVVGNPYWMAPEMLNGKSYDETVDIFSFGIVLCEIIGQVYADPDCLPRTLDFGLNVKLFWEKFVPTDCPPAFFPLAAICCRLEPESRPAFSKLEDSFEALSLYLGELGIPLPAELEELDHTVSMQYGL
T1 sequence (P53667 330-637): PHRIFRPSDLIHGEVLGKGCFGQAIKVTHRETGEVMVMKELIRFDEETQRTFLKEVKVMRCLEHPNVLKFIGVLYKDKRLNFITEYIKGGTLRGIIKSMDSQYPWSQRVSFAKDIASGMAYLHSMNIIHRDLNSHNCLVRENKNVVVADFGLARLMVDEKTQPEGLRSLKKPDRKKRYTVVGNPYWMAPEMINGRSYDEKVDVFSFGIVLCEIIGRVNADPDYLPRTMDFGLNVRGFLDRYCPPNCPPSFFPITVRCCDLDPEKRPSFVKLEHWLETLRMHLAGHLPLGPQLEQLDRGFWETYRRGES

Compound | ΔTm at 10 µM (LIMK1KD; [1]) [°C] | ΔTm at 10 µM (LIMK2KD; [2]) [°C] | TM Shift LIMK1 (K) (LIMK1KD; [1]) | TM Shift LIMK2 (K) (LIMK2KD; [3]) | also measured
CNC(=O)c1cccc(-c2ccc3c(N4CCOC[C@@H]4C)nc(N4CCOC[C@@H]4C)nc3n2)c1 [AZD2014] | 0.2 | -0.3 |  |  | 
Cn1cc(-c2ccc3ncc(Cc4ccc5ncccc5c4)n3n2)cn1 [NVP-BVU972] |  |  | -0.5 | 2.9 | 
Cc1cc(CN2CCN(c3c(Br)cnc4nc(-c5ccc(N6CCN(C)CC6)cc5)[nH]c34)CC2)no1 [CCT137690] |  |  | 3.4 | 3.5 | 
CNCc1ccc(-c2cc(-c3nc(-c4ccc(S(=O)(=O)C(C)C)cc4)cnc3N)on2)cc1 [VE-822] | -0.5 | 0.5 |  |  | 
O=C1c2ccc(Nc3ccc(F)cc3F)cc2CCc2ccc(OC[C@H](O)CO)cc21 [Skepinone-L] | -0.5 | -0.6 |  |  | 
CS(=O)(=O)N1CCc2c(-c3cnc(N)nc3)nc(N3CCOCC3)nc21 [CH5132799] | 1.3 | 0.1 |  |  | 
COc1cc2c(Oc3ccc(NC(=O)C4(C(=O)Nc5ccc(F)cc5)CC4)cc3F)ccnc2cc1OCCCN1CCOCC1 [Foretinib (GSK1363089), Foretinib] | 1.9 | -0.4 |  |  | 
O=C1NC(=O)[C@@H](c2cn3c4c(cccc24)CCC3)[C@@H]1c1c[nH]c2ccccc12 [Tivantinib] | 0 | 0.6 |  |  | 
CC(C)(C#N)c1ccc(N2C(=O)OCc3cnc4ccc(-c5cnc6ccccc6c5)cc4c32)cc1 [ETP-46464] |  |  | -0.5 | -0.5 | 
C=CCc1ccc(O)c(-c2ccc(O)c(CC=C)c2)c1 [Honokiol] | 0.9 | 1.7 |  |  | 
COc1cc2ncnc(Nc3cccc(Cl)c3)c2cc1OC [AG-1478 (Tyrphostin AG-1478), Tyrphostin AG-1478] | 1.4 | -0.2 |  |  | 
Cl.Cl.NC1(c2ccc(-c3nc4ccn5c(=O)[nH]nc5c4cc3-c3ccccc3)cc2)CCC1 [MK-2206 2HCl] |  |  | 0.4 | -1.1 | 
O=C1Nc2cc(Br)ccc2/C1=C1/Nc2ccccc2/C1=N\O [BIO] |  |  | 0.2 | 2.2 | 
CC(C)(C)c1cnc(CSc2cnc(NC(=O)C3CCNCC3)s2)o1 [SNS-032 (BMS-387032)] | 0.1 | -0.3 |  |  | 
Cn1cc(C2=C(c3ccc(Cl)cc3Cl)C(=O)NC2=O)c2ccccc21 [SB216763] | 0.7 | 1.3 |  |  | 
N#CC[C@@H](C1CCCC1)n1cc(-c2ncnc3[nH]ccc23)cn1 [S-Ruxolitinib (INCB018424), S-Ruxolitinib] | 0.9 | -0.7 |  |  | 
Cc1cn(-c2cc(NC(=O)c3ccc(C)c(Nc4nccc(-c5cccnc5)n4)c3)cc(C(F)(F)F)c2)cn1 [Nilotinib (AMN-107), Nilotinib] | 0.5 | 0.4 |  |  | 
CCN1CCN(C(=O)Cc2ccc(Nc3ncc(F)c(Nc4ccc(C(=O)Nc5ccccc5Cl)cc4)n3)cc2)CC1 [Aurora A Inhibitor I] |  |  | 4.9 | 3.7 | 
COc1cc(OC2CCN(C)CC2)ccc1Nc1ncc2c(n1)n(C1CCCC1)c(=O)n2C [AZ3146] | 0.4 | 0 |  |  | 
AZ23 |  |  | 3.6 | 0.8 | 
CCn1c(N)c(C(=O)NC)c(=O)c2ccc(C#C[C@@](C)(O)COC)nc21 [SAR131675] |  |  | 0.1 | 2.9 | 
CCCNC(=O)Nc1ccc(Oc2ncnc3cc(OC)c(OC)cc23)cc1Cl [KRN 633] | 1.9 | 1.4 |  |  | 
CCN1CCN(Cc2ccc(Nc3ncc(F)c(-c4cc(F)c5nc(C)n(C(C)C)c5c4)n3)nc2)CC1 [LY2835219] | 0.9 | 0.3 |  |  | 
Cc1cnc(Nc2ccc(F)cc2Cl)nc1-c1c[nH]c(C(=O)N[C@H](CO)c2cccc(Cl)c2)c1 [VX-11E] |  |  | 0.0 | -1.6 | 
CO[C@H]1C[C@@H]2CC[C@@H](C)[C@@](O)(O2)C(=O)C(=O)N2CCCC[C@H]2C(=O)O[C@H]([C@H](C)C[C@@H]2CC[C@@H](OCCO)[C@H](OC)C2)CC(=O)[C@H](C)/C=C(\C)[C@@H](O)[C@@H](OC)C(=O)[C@H](C)C[C@H](C)/C=C/C=C/C=C/1C [Everolimus (RAD001), Everolimus] | 0.1 | -0.9 |  |  | 
CCc1ccc(/C=C2/SC(=S)NC2=O)cc1 [10058-F4] |  |  | 0.3 | 1.7 | 
Cn1cc(C2=C(c3cn(C4CCN(Cc5ccccn5)CC4)c4ccccc34)C(=O)NC2=O)c2ccccc21 [Enzastaurin (LY317615), Enzastaurin] | 1 | 1.6 |  |  | 
O=S(=O)(c1cccc2cnccc12)N1CCCNCC1 [Fasudil (HA-1077) HCl, Fasudil] | 0.8 | 0.9 |  |  | 

Compound | ΔTm at 10 µM (LIMK1KD; [1]) [°C] | ΔTm at 10 µM (LIMK2KD; [2]) [°C] | TM Shift LIMK1 (K) (LIMK1KD; [1]) | TM Shift LIMK2 (K) (LIMK2KD; [3]) | also measured
CNC(=O)CN1CCC(Oc2cc3c(Nc4cccc(Cl)c4F)ncnc3cc2OC)CC1 [AZD8931 (Sapitinib), Sapitinib] | 0.9 | 0.6 |  |  | 
Cn1cc(-c2cnn3c(N)c(Br)c([C@@H]4CCCNC4)nc23)cn1 [MK-8776 (SCH 900776)] |  |  |  |  | ΔTm at 10 µM (LIMK1KD): 1.8 °C; ΔTm at 10 µM (LIMK2KD; read-out: TM Shift LIMK2 (K)): 2.2 °C
CCN1/C(=C/C(C)=O)Sc2ccc(OC)cc21 [TG003] |  |  | -1.0 | -1.2 | 
Oc1cc(O)cc(/C=C/c2ccc(O)c(O)c2)c1 [Piceatannol] | -0.6 | 0.8 |  |  | 
O=c1cc(N2CCOCC2)oc2c(-c3cccc4c3sc3ccccc34)cccc12 [NU7441 (KU-57788)] |  |  | 0.5 | -0.9 | 
COc1cc2c(Nc3ccc(NC(=O)c4ccccc4)cc3)ncnc2cc1OCCCN1CCOCC1 [ZM 447439] |  |  | 0.1 | 0.8 | 
Cc1nc(NC(=O)N2CCC[C@H]2C(N)=O)sc1-c1ccnc(C(C)(C)C(F)(F)F)c1 [BYL719] | -0.5 | -0.2 |  |  | 
CC(C)c1cnn2c(NCc3ccccc3)cc(NCCCCCCN)nc12.Cl [BS-181 HCl] |  |  | 0.7 | 1.7 | 
COC(=O)c1ccc2c(c1)NC(=O)/C2=C(\Nc1ccc(N(C)C(=O)CN2CCN(C)CC2)cc1)c1ccccc1 [Nintedanib] | 1.3 | 0.3 |  |  | 
CC(C)(C)c1cc(NC(=O)Nc2ccc(-c3cn4c(n3)sc3cc(OCCN5CCOCC5)ccc34)cc2)no1 [Quizartinib (AC220), Quizartinib] | -1.4 | 1.3 |  |  | 
Cn1cc(-c2ccc3nnc(Sc4ccc5ncccc5c4)n3n2)cn1 [SGX-523] | -0.4 | 0.2 |  |  | 
C[C@@H]1CN(CC(=O)Nc2ccc3c(c2)Cc2cccc(-c4cc(=O)cc(N5CCOCC5)o4)c2S3)C[C@H](C)O1 [KU-60019] | 0.5 | 0.6 |  |  | 
COc1cc2ncnc(Nc3ccc(F)c(Cl)c3)c2cc1OCCCN1CCOCC1 [Gefitinib (ZD1839), Gefitinib] | -0.6 |  |  |  | ΔTm at 10 µM (LIMK2KD; read-out: TM Shift LIMK2 (K), LIMK2KD, compound 10 µM, single shot): 0.5 °C
CC(=O)c1c(C)c2cnc(Nc3ccc(N4CCNCC4)cn3)nc2n(C2CCCC2)c1=O [Palbociclib (PD-0332991) HCl, Palbociclib] | 0.5 | 0.2 |  |  | 
CCN(CC)CCNC(=O)c1c(C)[nH]c(/C=C2\C(=O)Nc3ccc(F)cc32)c1C [Sunitinib Malate] |  |  | 1.6 |  | TM Shift LIMK2 (K) (LIMK2KD; [4]): 0.5 K
COc1ccc2cc(-c3nc(-c4ccc([S+](C)[O-])cc4)[nH]c3-c3ccncc3)ccc2c1 (stereo not shown) [Tie2 kinase inhibitor] |  |  | 1.3 | 1.4 | 
O=C(NC(NC(=S)Nc1ccc(F)c([N+](=O)[O-])c1)C(Cl)(Cl)Cl)C(c1ccccc1)c1ccccc1 (stereo not shown) [CGK 733] |  |  | 0.7 | 4.2 | 
COc1ccc(-c2ccc3ncc4c(c3c2)n(-c2ccc(N3CCNCC3)c(C(F)(F)F)c2)c(=O)n4C)cn1 [BGT226 (NVP-BGT226)] | -0.1 | -0.7 |  |  | 
O=C(NCCCNc1nc(Nc2cccc(NC(=O)N3CCCC3)c2)ncc1I)c1cccs1 [BX-795] | 5 | 4.7 |  |  | 
Cc1ccc(NC(=O)c2cccc(C(C)(C)C#N)c2)cc1Nc1ccc2ncn(C)c(=O)c2c1 [AZ 628] |  |  | 0.3 | 1.2 | 
CCNC(=O)Nc1ccc(-c2nc3c(c(N4CCOC[C@@H]4C)n2)CCN(C2COC2)C3)cc1 [GDC-0349] | -0.5 | -1.3 |  |  | 
Nc1nc(N)c2nc(-c3cccc(O)c3)c(-c3cccc(O)c3)nc2n1 [TG100-115] |  |  | 1.3 | 2.4 | 
NC(=O)Nc1sc(-c2ccc(F)cc2)cc1C(N)=O [TPCA-1] |  |  | 2.8 | 3.6 | 
OCCn1cc(-c2ccc3c(c2)CC/C3=N\O)c(-c2ccncc2)n1 [GDC-0879] | -0.7 | 0 |  |  | 
FC(F)c1nc2ccccc2n1-c1nc(N2CCOCC2)nc(N2CCOCC2)n1 [ZSTK474] | -1 | 0 |  |  | 
CCc1cnn2c(NCc3ccc[n+]([O-])c3)cc(N3CCCC[C@H]3CCO)nc12 [Dinaciclib (SCH727965), Dinaciclib] | -0.3 | 0.6 |  |  | 
Cc1[nH]c(/C=C2\C(=O)Nc3ccccc32)c(C)c1CCC(=O)O [Orantinib] | 1.9 |  |  |  | TM Shift LIMK1 (K) (LIMK1KD; 2 µM LIMK1KD, compound 10 µM, single shot, listed as TSU-68 (SU6668, Orantinib)): 1.7 K; TM Shift LIMK2 (K) (LIMK2KD; [4]): 1.0 K; TM Shift LIMK2 (K) (LIMK2KD; LIMK2KD, compound 10 µM, single shot, listed as TSU-68 (SU6668, Orantinib), 10 µM): 2.8 K
